This is an account of results in patent US7906522B2, “2-aminoquinazoline derivatives” (Kyowa Hakko Kirin Co., Ltd, priority 2005, dated 2011).

In the test the target is T1, Activated human p38α (Homo sapiens, UniProt Q16539).
T1 construct: purchased Upstate Biotechnology Inc. 14-251
T1 sequence (Q16539 whole entry): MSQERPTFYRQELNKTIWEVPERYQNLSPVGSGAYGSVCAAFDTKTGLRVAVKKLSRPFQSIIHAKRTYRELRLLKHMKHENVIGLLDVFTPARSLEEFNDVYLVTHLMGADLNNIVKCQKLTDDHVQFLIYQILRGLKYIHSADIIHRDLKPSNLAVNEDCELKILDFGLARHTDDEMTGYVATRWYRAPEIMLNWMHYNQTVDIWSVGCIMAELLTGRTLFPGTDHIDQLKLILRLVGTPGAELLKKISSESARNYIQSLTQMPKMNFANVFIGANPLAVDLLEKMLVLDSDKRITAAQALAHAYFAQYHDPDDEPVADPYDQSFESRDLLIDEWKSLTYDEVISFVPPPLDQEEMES
Nature of the test: p38MAP kinase inhibition test. The format is biochemical. The note with it: at a concentration of 1 μmol/L; substrate myelin basic protein, ATP 20 μmol/L, [γ-32P]ATP; read-out: enzyme inhibitory activity. The procedure: p38MAP Kinase Inhibition Test
Activated human p38α was purchased from Upstate Biotechnology Inc. (Catalog No. 14-251). P38MAP kinase inhibitory activity was measured by the procedure described below with reference to the method by Whitmarsh A. J. and Davis R. J. [Methods in Enzymology (Method. Enzymol.), vol. 332, p. 319-336 (2001)]. As the substrate to be phosphorylated, a myelin basic protein (Catalog No. 133-13493, Wako Pure Chemical Industries, Ltd.) (20 μg/assay) was used. The reaction was carried out in a solution containing 3-[N-Morpholino]propanesulfonic acid (MOPS) (20 mmol/L, pH 7.2), β-glycerophosphoric acid (Sigma Corp.) (25 mmol/L), ethylenebis(oxyethylenenitrilo)tetraacetic acid (EGTA) (1 mmol/L), […] (Sigma-Aldrich Corp.) (1 mmol/L), dithiothreitol (DTT, Wako Pure Chemical Industries, Ltd.) (1 mmol/L), adenosine 5′-triphosphate (ATP, Sigma Corp.) (20 μmol/L), and MgCl2 (18.75 mmol/L) (total 40 μL/assay). The reaction was started by adding human p38α and [γ-^32P]ATP (1 μCi/assay), and incubation was performed at 30° C. for 15 minutes. The reaction was terminated by adding 4.5% v/v phosphoric acid (10 μL/well). Then, 45 μL of the reaction mixture was adsorbed onto phosphocellulose paper (p81 paper, Code No. 3698023, Whatman International, Maidstone, UK). The phosphocellulose paper was washed with 0.75% v/v phosphoric acid. Then, the radioactivity of the phosphorylated myelin basic protein ([^32P]) remaining on the phosphocellulose paper was measured with a scintillation counter (TRI-CARB2700TR, PerkinElmer, Boston, Mass., USA) using program No. 27 (data mode: cpm, measurement time: 1 min, Background substract: none, energy range measured: LL 0.0-UL 2000) or a scintillation counter (LS6500, BeckmanCoulter, Fullerton, Calif., USA) using program No. 17 (data mode: cpm, measurement time: 1 min, Background substract: none, energy range measured: high). The test compound was dissolved in DMSO before addition.
Turning to `Cc1ccccc1-c1cc2cnc(N[C@@H](C)C(C)C)nc2cc1O` [Compound 173, (S)-2-(3-methyl-2-butylamino)-7-hydroxy-6-(2-methylphenyl)quinazoline], the inhibition at 1 µM was not below 50%. With `CCOC(=O)COc1c(-c2ccccc2Cl)cc2cnc(NC(C)C)nc2c1C(C)=O` [Compound 79, 8-Acetyl-6-(2-chlorophenyl)-7-(ethoxycarbonylmethyloxy)-2-(isopropylamino)quinazoline], the inhibition at 1 µM is not below 50%.

Turning to `COc1cc2nc(NC(C)C)ncc2cc1-c1cccc(C=O)c1` [Compound 197, 6-(3-Formylphenyl)-2-isopropylamino-7-methoxyquinazoline], the inhibition at 1 µM is not below 50%. Under `COc1cc2nc(NCC3CCN(S(C)(=O)=O)CC3)ncc2cc1-c1ccccc1Cl` [Compound 144, 6-(2-Chlorophenyl)-7-methoxy-2-[1-(methylsulfonyl)piperidin-4-ylmethylamino]quinazoline] stands not below 50%.

Regarding `CC(C)Nc1ncc2cc(-c3ccccc3Cl)c(O)c(-c3ccccn3)c2n1` [Compound 87, 6-(2-Chlorophenyl)-2-isopropylamino-7-hydroxy-8-(2-pyridyl)quinazoline], the inhibition at 1 µM is not below 50%. In the case of `COc1ccccc1C(=O)c1cc2cnc(NC(C)C)nc2cc1O` [Compound 122, 7-Hydroxy-2-isopropylamino-6-(2-methoxybenzoyl)quinazoline], the inhibition at 1 µM was not below 50%. `CC(C)Nc1ncc2cc(-c3ccccc3Cl)c(OCC(=O)O)cc2n1` [Compound 33, 7-(Carboxymethyloxy)-6-(2-chlorophenyl)-2-isopropylaminoquinazoline]: the inhibition at 1 µM was not below 50%.

Turning to `Cc1ccc(NC(=O)c2ccc[n+]([O-])c2)cc1-c1ccc2nc(NC(C)C)ncc2c1` [Compound 263, 2-Isopropylamino-6-{2-methyl-5-[(pyridine-1-oxide-3-yl)carbonylamino]phenyl}quinazoline], the inhibition at 1 µM was not below 50%.

As to `COc1cc2nc(NC(C)C)ncc2cc1-c1cccc(NC(=O)c2cccnc2)c1` [Compound 221, 2-Isopropylamino-7-methoxy-6-{3-[(3-pyridyl)carbonylamino]phenyl}quinazoline], the inhibition at 1 µM is not below 50%.

As for `CC(C)Nc1ncc2cc(-c3ccccc3Cl)c(O)c(-c3cccc(C(=O)O)c3)c2n1` [Compound 94, 8-(3-Carboxyphenyl)-6-(2-chlorophenyl)-7-hydroxy-2-(isopropylamino)quinazoline], the inhibition at 1 µM was not below 50%. In the case of `COc1cc2nc(NC(C)C)ncc2cc1-c1cc(NC(=O)c2ccc[nH]2)ccc1O` [Compound 252, 6-{2-Hydroxy-5-[(1H-pyrrol-2-yl)carbonylamino]phenyl}-2-isopropylamino-7-methoxyquinazoline], the inhibition at 1 µM is not below 50%.

With `CCCNC(=O)c1c(OC)c(-c2ccccc2Cl)cc2cnc(NC(C)C)nc12` [Compound 69, 6-(2-Chlorophenyl)-2-isopropylamino-7-methoxy-8-(N-propylaminocarbonyl)quinazoline], the inhibition at 1 µM is not below 50%. For the compound `COc1cc2nc(NC(C)C)ncc2cc1-c1ccccc1C=O` [Compound 57, 6-(2-Formylphenyl)-2-isopropylamino-7-methoxyquinazoline], the inhibition at 1 µM is not below 50%.

Regarding `CNc1ncc2cc(-c3cc(NC(C)=O)ccc3C)c(OC)cc2n1` [Compound 250, 6-(5-Acetylamino-2-methylphenyl)-7-methoxy-2-(methylamino)quinazoline], the inhibition at 1 µM was not below 50%. Consider `O=C(c1ccccc1)c1cc2cnc(Nc3c(Cl)cccc3Cl)nc2cc1O` [Compound 141, 6-Benzoyl-2-(2,6-dichloroanilino)-7-hydroxyquinazoline], for which the inhibition at 1 µM was not below 50%.

`CC(C)Nc1ncc2cc(-c3ccccc3Cl)c(O)c(-c3ccc(C(=O)O)cc3)c2n1` [Compound 92, 8-(4-Carboxyphenyl)-6-(2-chlorophenyl)-7-hydroxy-2-(isopropylamino)quinazoline]: the inhibition at 1 µM is not below 50%. As for `CC(C)Nc1ncc2cc(C(=O)c3ccccc3)c(O)cc2n1` [Compound 110, 6-Benzoyl-7-hydroxy-2-(isopropylamino)quinazoline], the inhibition at 1 µM is not below 50%. For the compound `COc1c(-c2ccccc2Cl)cc2cnc(NC(C)C)nc2c1-c1ccccn1` [Compound 86, 6-(2-Chlorophenyl)-2-isopropylamino-7-methoxy-8-(2-pyridyl)quinazoline], the inhibition at 1 µM is not below 50%. `COc1cc2nc(NC(C)C)ncc2cc1-c1ccc(O)cc1` [Compound 47, 6-(4-Hydroxyphenyl)-2-isopropylamino-7-methoxyquinazoline]: the inhibition at 1 µM was not below 50%. As to `COc1cc2nc(NC(C)C)ncc2cc1-c1ccccc1C(C)=O` [Compound 187, 6-(2-Acetylphenyl)-2-isopropylamino-7-methoxyquinazoline], the inhibition at 1 µM is not below 50%.

As to `CON=Cc1ccccc1-c1cc2cnc(NC(C)C)nc2cc1OC` [Compound 59, 2-Isopropylamino-7-methoxy-6-[2-(methoxyimino)phenyl]quinazoline], the inhibition at 1 µM is not below 50%. Consider `Cc1ccc(NC(=O)c2ccc[nH]2)cc1-c1ccc2nc(NC(C)C)ncc2c1` [Compound 253, 2-Isopropylamino-6-{2-methyl-5-[(1H-pyrrol-2-yl)carbonylamino]phenyl}quinazoline], for which the inhibition at 1 µM was not below 50%. Take `COc1cc2nc(NC(C)C)ncc2cc1-c1cc(N)ccc1C` [Compound 229, 6-(5-Amino-2-methylphenyl)-2-isopropylamino-7-methoxyquinazoline]: the inhibition at 1 µM was not below 50%. For the compound `COc1cc2nc(NC3CCN(S(=O)(=O)C(C)C)CC3)ncc2cc1-c1ccccc1Cl` [Compound 143, 6-(2-Chlorophenyl)-2-[1-(isopropylsulfonyl)piperidin-4-ylamino]-7-methoxyquinazoline], the inhibition at 1 µM was not below 50%.

For `CCOC(=O)/C=C/c1c(OC)c(-c2ccccc2Cl)cc2cnc(NC(C)C)nc12` [Compound 73, 6-(2-Chlorophenyl)-8-[(E)-2-(ethoxycarbonyl)ethenyl]-7-methoxy-2-(isopropylamino)quinazoline], the inhibition at 1 µM is not below 50%. Consider `COc1cc2nc(NC(C)C)ncc2cc1-c1cc(NC(=O)c2ccnc(N3CCOCC3)c2)ccc1C` [Compound 231, 2-Isopropylamino-7-methoxy-6-{2-methyl-5-[(2-morpholinopyridin-4-yl)carbonylamino]phenyl}quinazoline], for which the inhibition at 1 µM is not below 50%. For `CCOC(=O)N1CCC(Nc2ncc3cc(-c4ccccc4Cl)c(OC)cc3n2)CC1` [Compound 149, 6-(2-Chlorophenyl)-2-[1-(ethoxycarbonyl)piperidin-4-ylamino]-7-methoxyquinazoline], the inhibition at 1 µM is not below 50%.

`COc1cc2nc(NC(C)C)ncc2cc1-c1cccc(F)c1` [Compound 204, 6-(3-Fluorophenyl)-2-isopropylamino-7-methoxyquinazoline]: the inhibition at 1 µM is not below 50%. The figure for `CC(C)Nc1ncc2cc(-c3cccc(C(=O)NC4CC4)c3)ccc2n1` [Compound 270, 6-[3-(Cyclopropylcarbamoyl)phenyl]-2-(isopropylamino)quinazoline] is not below 50%; for `CNC(=O)Nc1cccc(-c2cc3cnc(NC(C)C)nc3cc2OC)c1` [Compound 212, 2-Isopropylamino-7-methoxy-6-[3-(3-methylureido)phenyl]quinazoline] it is not below 50%.
